{
  "source": "paper PMC8400343",
  "about": "“Synthesis and Evaluation of the Antidepressant-like Properties of HBK-10, a Novel 2-Methoxyphenylpiperazine Derivative Targeting the 5-HT1A and D2 Receptors” (Pharmaceuticals, 2021)",
  "key": {"[1]": {"molecular_target": "T1, human serotonin 5-HT1A receptor (Homo sapiens, UniProt P08908)", "T1 construct": "expressed in transfected cells; host or cells: CHO-K1 (cryopreserved, whole cells)", "T1 sequence (P08908 1-422)": "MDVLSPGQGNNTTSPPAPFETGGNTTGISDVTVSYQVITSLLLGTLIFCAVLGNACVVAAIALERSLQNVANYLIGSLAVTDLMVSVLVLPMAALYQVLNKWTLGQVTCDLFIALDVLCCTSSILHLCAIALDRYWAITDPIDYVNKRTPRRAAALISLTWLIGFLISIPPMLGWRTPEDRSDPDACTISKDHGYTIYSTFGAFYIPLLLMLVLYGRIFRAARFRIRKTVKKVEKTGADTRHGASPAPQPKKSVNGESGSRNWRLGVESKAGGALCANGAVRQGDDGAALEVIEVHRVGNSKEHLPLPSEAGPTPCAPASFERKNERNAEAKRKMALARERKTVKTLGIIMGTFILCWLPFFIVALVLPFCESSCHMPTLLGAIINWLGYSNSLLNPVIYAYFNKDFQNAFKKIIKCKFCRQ", "test": "Functional assay, inhibition of cAMP production, CHO-K1 cells", "assay_type": "cell-based", "method": "Tested and reference compounds were dissolved in dimethyl sulfoxide (DMSO) at a concentration of 10 mM. Serial dilutions were prepared in 96-well microplate in assay buffer, and 8 to 10 concentrations were tested. […] Thawed cells were resuspended in stimulation buffer (HBSS, 5 mM HEPES, […], and 0.1% BSA at pH 7.4) at 2 × 10^5 cells/mL. The 10 µL of cell suspension was added to tested compounds with 10 µM forskolin. Samples were loaded onto a white opaque half area 96-well microplate. […] The agonist and antagonist were added simultaneously. Cell stimulation was performed for 40 min at room temperature. After incubation, cAMP measurements were performed with homogeneous TR-FRET immunoassay using the LANCE Ultra cAMP kit (PerkinElmer, Waltham, MA, USA). Ten microliters of EucAMP Tracer Working Solution and 10 µl of ULight-anti-cAMP Tracer Working Solution were added, mixed, and incubated for 1 h. The TR-FRET signal was read on an EnVision microplate reader (PerkinElmer, USA). IC50 and EC50 were determined by nonlinear regression analysis using GraphPad Prism 6.0 software."}, "[2]": {"test_system": "mice", "test": "Forced swim test in naive mice", "assay_type": "in vivo, mouse", "method": "Adult male Albino-Swiss mice (CD-1, 8 weeks old, 18–21g: Jagiellonian University Medical College, Krakow, Poland) were used in all experiments. Unless stated otherwise, the animals were kept in groups of 10 mice in standard cages (37 cm × 21 cm × 15 cm) at a room temperature (22 ± 2 °C), on a 12 h light/dark cycle (lights on 7:00) with ad libitum access to food and water. Mice were used only once in each test. Behavioral experiments were performed between 8 am and 4 pm and evaluated by a trained observer blind to the treatments. Mice were handled for 1 week before starting the experimental procedures. Animals were randomly allocated to the treatment using a computer-generated sequence, and researchers making measurements on the animals or analyzing the results were blind to the allocation. Moreover, experimental groups were distributed across multiple cages, and the location of the mouse cages in the room was changed following each day.\nHBK-10, WAY-100635 (Sigma, Darmstadt, Germany), p-chlorophenylalanine (pCPA; Sigma, Darmstadt, Germany), fluoxetine (Sigma, Darmstadt, Germany), reboxetine (Sigma, Darmstadt, Germany) and bupropion (Sigma, Darmstadt, Germany), were suspended in 1% Tween, and administered ip at a volume of 10 mL/kg 30 min before each behavioral test. The control groups received saline ip 30 min prior to testing. The doses of fluoxetine, reboxetine and bupropion as well as WAY-100635 and pCPA were based on our previous studies with 2-methoxyphenylpiperazine derivatives.\nThe experiment was performed on mice according to the method described by Porsolt et al. and as previously described. Mice were placed individually in glass cylinders (height 25 cm, diameter 10 cm) filled with water at 24 ± 1 °C to a depth of 10 cm and left there for 6 min. Following a 2 min habituation period, total time spent immobile was recorded during the next 4 min. The animal was considered as immobile when it remained floating passively in the water, making only small movements to keep its head above the water. The experiments were video-recorded and scored using elevenmaze.com software by a trained observer blind to the treatments.\nTo assess the involvement of a serotonergic system in the antidepressant-like activity of tested compounds in the forced swim test, the mice were pretreated with pCPA (tryptophan hydroxylase inhibitor) according to the method previously described. […]. Twenty-four hours after the last pCPA administration, we injected mice with 1% Tween ip or tested compound. We performed the forced swim test 30 min after the administration.\nThe putative involvement of 5-HT1A receptors in the antidepressant-like effect of tested compound was studied using WAY-100635 (a selective 5-HT1A receptor antagonist). WAY-100635 at a dose of 0.1 mg/kg was administered sc 15 min prior to the injection of HBK-10. After 30 min the forced swim test was performed. The behaviorally ineffective dose of WAY-100635 used in the experiments was based on our previous experiments."}, "[3]": {"test": "Chimney test in mice", "assay_type": "in vivo, mouse", "settings": "mouse, in vivo; ip, log-probit method", "method": "(§1) The chimney test was performed as previously described. The mice were trained before the test, and only those animals able to get out of the chimney within 1 min, were used at the experimental stage. The selected mice were placed in a 25 cm long and 2.5 cm in diameter horizontally located tube, which was reversed so that the mice could leave it only by climbing up backward until they reached the other end. Motor impairment was indicated by the inability of the mice to perform the test within 60 s. The number of animals unable to climb backward within 60 s was recorded, and TD50 values were calculated."}, "[4]": {"test_system": "mice", "test": "Chimney test in mice", "assay_type": "in vivo, mouse", "method": "as §1"}},
  "note": "Like-named read-outs stand apart in the source and are kept apart here.",
  "data": [
    {"smiles": "CCC(CN1CCN(c2ccccc2OC)CC1)NCCCOc1c(C)cccc1C.Cl.Cl", "note": "(stereo not drawn) [HBK-10, N-(3-(2,6-dimethylphenoxy)propyl)-1-(4-(2-methoxyphenyl)piperazin-1-yl)butan-2-amine dihydrochloride]", "values": [
      {"measurement": "Kb, fold lower compared with NAN-190", "setting": "[1]; 5-HT1A, antagonist mode", "result": 10, "unit": "fold"},
      {"measurement": "Kb", "setting": "[1]; 5-HT1A, antagonist mode, Cheng–Prusoff equation", "result": 64, "unit": "nM"},
      {"measurement": "Emax", "setting": "[1]; CHO-K1, read-out: Emax %, agonist mode", "result": 2, "unit": "%"},
      {"measurement": "Emax", "setting": "[1]; CHO-K1, read-out: Emax %, antagonist mode", "result": 0, "unit": "%"},
      {"measurement": "IC50", "setting": "[1]; read-out: pIC50 ± SEM, antagonist mode (converted)", "result": 191, "unit": "nM"},
      {"measurement": "Reduction of immobility in the forced swim test", "setting": "[2]; 1.25 mg/kg ip, WAY-100635 experiment, no pretreatment", "result": 35.7, "unit": "%"},
      {"measurement": "Reduction of immobility in the forced swim test", "setting": "[2]; 1.25 mg/kg ip, pCPA experiment, no pretreatment", "result": 28.1, "unit": "%"},
      {"measurement": "Reduction of immobility in the forced swim test", "setting": "[2]; 1st of five values, dose range 1.25–10 mg/kg ip, 30 min before test (lowest dose 1.25 mg/kg)", "result": 21.1, "unit": "%"},
      {"measurement": "Reduction of immobility in the forced swim test", "setting": "[2]; 2nd of five values, dose range 1.25–10 mg/kg ip, dose not given", "result": 23.5, "unit": "%"},
      {"measurement": "Reduction of immobility in the forced swim test", "setting": "[2]; 3rd of five values, dose range 1.25–10 mg/kg ip, dose not given", "result": 26.6, "unit": "%"},
      {"measurement": "Reduction of immobility in the forced swim test", "setting": "[2]; 4th of five values, dose range 1.25–10 mg/kg ip, dose not given", "result": 44.2, "unit": "%"},
      {"measurement": "Reduction of immobility in the forced swim test", "setting": "[2]; 5th of five values, dose range 1.25–10 mg/kg ip (highest dose 10 mg/kg)", "result": 47.2, "unit": "%"},
      {"measurement": "Effect on immobility in the forced swim test, combined administration", "setting": "[2]; HBK-10 0.625 mg/kg combined with bupropion 2.5 mg/kg, ip", "result": "did not significantly decrease the immobility"},
      {"measurement": "Decrease of immobility in the forced swim test, combined administration", "setting": "[2]; HBK-10 0.625 mg/kg combined with fluoxetine 10 mg/kg, ip", "result": 40.9, "unit": "%"},
      {"measurement": "Decrease of immobility in the forced swim test, combined administration", "setting": "[2]; HBK-10 0.625 mg/kg combined with reboxetine 5 mg/kg, ip", "result": 57.7, "unit": "%"},
      {"measurement": "Antidepressant-like effect in the forced swim test after pCPA pretreatment", "setting": "[2]; HBK-10 1.25 mg/kg ip after pCPA 200 mg/kg for three days", "result": "abolished"},
      {"measurement": "Antidepressant-like effect in the forced swim test after WAY-100635 pretreatment", "setting": "[2]; HBK-10 1.25 mg/kg ip, WAY-100635 0.1 mg/kg sc 15 min before", "result": "abolished"},
      {"measurement": "Active dose in the forced swim test, fold lower than escitalopram", "setting": "[2]; comparator data ref 19, 42", "result": 2, "unit": "fold"},
      {"measurement": "Active dose in the forced swim test, fold lower than reboxetine", "setting": "[2]; comparator data ref 19, 42", "result": 8, "unit": "fold"},
      {"measurement": "Activity in the forced swim test at 0.625 mg/kg", "setting": "[2]; naive mice, 0.625 mg/kg, single administration", "result": "inactive"},
      {"measurement": "Lowest active dose in the forced swim test", "setting": "[2]; naive mice, single administration", "result": 1.25, "unit": "mg/kg"},
      {"measurement": "TD50 at 30 min", "setting": "[3]", "result": 21.7, "unit": "mg/kg"},
      {"measurement": "% of Animals That Did Not Climb out the Chimney", "setting": "[4]; 10 mg/kg ip", "result": 20, "unit": "%"},
      {"measurement": "% of Animals That Did Not Climb out the Chimney", "setting": "[4]; 20 mg/kg ip", "result": 40, "unit": "%"},
      {"measurement": "% of Animals That Did Not Climb out the Chimney", "setting": "[4]; 30 mg/kg ip", "result": 64, "unit": "%"},
      {"measurement": "% of Animals That Did Not Climb out the Chimney", "setting": "[4]; 40 mg/kg ip", "result": 87, "unit": "%"},
      {"measurement": "% of Animals That Did Not Climb out the Chimney", "setting": "[4]; 60 mg/kg ip", "result": 90, "unit": "%"}
    ]}
  ]
}
